Reference: patent US20100311790A1 (priority 2007, published 2010)

What was measured:
[1] = tested on: Sclerotinia sclerotiorum; experiment: Test Examples 2 and 3: preventive effect on Sclerotinia rot disease of cucumber, foliar spray; format: in vivo; conditions: cucumber (Sagami Hanjiro), flowable formulation diluted to 200 ppm, foliar spray before inoculation, 18° C. for 4 days under high humidity
Description: (§1) The area of lesions on the test plants at testing was visually observed, and the control effect was evaluated by comparing the area of lesions on test plants treated with the invented compound with the area of lesions on untreated plants.
Test for Showing Preventive Effect on Sclerotinia Rot Disease of Cucumber (Sclerotinia sclerotiorum)
Sand soil was packed in a plastic pot, and seeds of cucumber (variety: Sagami Hanjiro) were sowed therein and grown for 12 days in a greenhouse. […] After spraying, the plant was air-dried and PDA medium containing hyphae of Sclerotinia sclerotiorum was placed on the surface of leaves of the cucumber. After the inoculation, the plant was left at 18° C. for 4 days under high humidity, area of lesions was examined. As a result, the lesion area on the plant treated with the invented compounds (1), (3)-(27) and (28) was less than 10% of the lesion area on the untreated plant.
Sand soil was packed in a plastic pot, and seeds of cucumber (variety: Sagami Hanjiro) were sowed therein and grown for 12 days in a greenhouse. The invented compound (2) was formulated into flowable formulation in accordance with Formulation Example 6, and it was diluted with water to a given concentration (200 ppm) and was sprayed onto the foliage of the cucumber so that a sufficient amount of the compound would be applied to the surface of leaves of the cucumber. […]

[2] = tested on: Botrytis cinerea; experiment: Test Example 1: preventive effect on Botrytis disease of cucumber, foliar spray; format: in vivo; conditions: cucumber (Sagami Hanjiro), flowable formulation diluted to 13 ppm, foliar spray before inoculation, 12° C. for 5 days under high humidity
Description: as §1
Test for Showing Preventive Effect on Botrytis Disease of Cucumber (Botrytis cinerea)
Sand soil was packed in a plastic pot, and seeds of cucumber (variety: Sagami Hanjiro) were sowed therein and grown for 12 days in a greenhouse. Each of the invented compounds (2), (3), (7), (11), (12), (15), (16), (18), (19), (21), (23), (24) and (27) and the comparative compound (A) was formulated into flowable formulation in accordance with Formulation Example 6, and it was diluted with water to a given concentration (13 ppm) and was sprayed onto the foliage of the cucumber so that a sufficient amount of the compound would be applied to the surface of leaves of the cucumber. After spraying, the plant was air-dried and PDA medium containing spores of Botrytis cinerea was placed on the surface of leaves of the cucumber. After the inoculation, the plant was left at 12° C. for 5 days under high humidity, and then the area of lesions was examined. As a result, the lesion area on the plant treated with the invented compounds (2), (3), (7), (11), (12), (15), (16), (18), (19), (21), (23), (24) and (27) was less than 30% of the lesion area on the untreated plant. […]

SMILES | lesion area on the treated plant as % of the lesion area on the untreated plant [1] | lesion area on the treated plant as % of the lesion area on the untreated plant [2] [%]
C=CCCOc1cccc(CNC(=O)c2ccc3ncccc3c2)c1F [(2)] | less than 10% | 
CC(C)=CCOc1cccc(CNC(=O)c2ccc3ncccc3c2)c1 [comparative compound (A), N-[3-(3-methyl-2-butenyloxy)phenyl]methyl-quinoline-6-carboxamide] |  | 98
